The source of these data is patent publication US20250170224A1, “METHODS AND COMPOSITIONS FOR TREATING MICROGLIAL DYSFUNCTION AND IMPROVING METABOLIC DYSFUNCTION” (Ultimate Medicine AG, priority 2021, published 2025).

For data set [1] the following is noted: healthy subjects; ingested lactulose 5 grams, mannitol 1 gram; cited from earlier work.
The subject of another data set is gut barrier / microglia. Put plainly: Aged SPF mice (18 months old) treated orally every third day for 10 weeks with EA or IAP. The format is in vivo, mouse (C57BL/6). The conditions noted are these: for ATP levels in microglia / cellular ROS in microglia (CellROX): compared to vehicle-treated aged mice; for CML accumulation in the brain (LC-MS) / gut permeability (FITC-dextran 4 kDa translocation to the circulation): oral, every 3 days for 10 weeks. As for the experimental part:
(§1) Specific pathogen-free (SPF) and germ-free (GF) housed C57BL/6 mice were analyzed at 6-10 weeks of age (young-adult) and 96-104 weeks of age (aged). Mice of the aged group in the nontargeted metabolomics analysis were 17-18 months old. Except for nontargeted metabolomics and microbiota profiling, where only male mice were used, all groups included mice from both sexes. Mice were housed under a 12-hour light/12-hour dark cycle and temperatures of 18-23° C. with 40-60% humidity, with food and water given ad libitum. To avoid cage effects, mice from at least three different cages per experimental group were analyzed. For the treatment, young-adult mice (8 weeks old) were injected intraperitoneally or by oral gavage with CML (0.735 mg kg^−1; Iris Biotech), trimethylamine N-oxide (TMAO) (3.95 mg kg^−1; Sigma-Aldrich), sodium acetate (59 mg kg^−1; Sigma-Aldrich) and sodium propionate (4.61 mg kg^−1; Sigma-Aldrich) daily for 14 days. For modulation of CML in aged animals, 18-month-old SPF housed C57BL/6 mice were treated orally every third day for 10 weeks with vehicle (20% hydroxypropyl-p-cyclodextrin in 1× phosphate-buffered saline (PBS)), 10 mg kg^−1 ellagic acid (EA) or 3,000 U kg^−1 intestinal alkaline phosphatase (IAP). To assess in vivo intestinal permeability, tracer fluorescein isothiocyanate (FITC)-labeled dextran (4 kDa: Sigma-Aldrich) was used. Briefly, mice were deprived of food 4 hours before and both food and water 4 hours after oral gavage using 200 μl of 80 mg ml^−1 FITC-dextran. Blood was collected retro-orbitally after 4 hours and fluorescence intensity was measured on fluorescence plates using an excitation wavelength of 493 nm and an emission wavelength of 518 nm. To assess in vivo intestinal permeability to CML, mice were treated with […] CML (0.36 mM). Blood was collected retro-orbitally immediately before and 4 hours after treatment. CML translocated into the circulation was measured by liquid chromatography-mass spectrometry (LC-MS). All animal experiments were approved by the local administration in Germany (Regierungsprasidium Freiburg) and were performed in accordance with the respective national, federal, and institutional regulations and the guidelines of the Federation of European Laboratory Animal Science Associations.
Cell sorting for RT-qPCR and RNA sequencing (RNA-seq) was performed on a MoFlo Astrios (Beckman Coulter; FIG. 7a). Before surface staining, dead cells were excluded by using the Fixable Viability Dye eFluor 780 (1:1,000 dilution; Thermo Fisher Scientific) followed by incubation with Fc receptor blocking antibody CD16/CD32 (1:200 dilution, clone 2.4G2; BD Bioscience). The following antibodies were used for surface staining: anti-CD45 (1:200 dilution, clone 30-F11; Thermo Fisher Scientific); anti-CD11b (1:200 dilution, clone MI/70; Thermo Fisher Scientific). The following lineage antibodies were used (all at 1:300 dilution): anti-CD3 (clone 17A2; BioLegend); anti-CD19 (clone 6D5; BioLegend); anti-CD45R (clone RA3-6B2; BD Biosciences); Ly6C (clone AL-21; BD Biosciences); Ly6G (clone 1A8; BD Biosciences). To assess microglial cellular reactive oxidative species (ROS), the CellROX DeepRed Reagent ([…]; Thermo Fisher Scientific) was used. To assess mitochondrial activity, Tetramethylrhodamine, Methyl Ester, Perchlorate (50 nM; Thermo Fisher Scientific) and MitoTracker Green FM (20 nM; Thermo Fisher Scientific) were used. Dead cells were excluded by short incubation with DAPI before flow cytometry analysis with the FACSCanto II (BD Biosciences). Data were acquired with the FACSDiva v.6 software (Becton Dickinson). Postacquisition analysis was performed with FlowJo v.10 (FlowJo LLC).
To avoid the cellular stress of fluorescence-activated cell sorting (FACS), microglial cells were isolated using the magnetic-activated cell sorting (MACS) separation system (Miltenyi Biotec; FIG. 7b). […]

The next data set deals with microglia. The format is in vivo. The conditions noted are these: young-adult mice, i.p. once per day for two weeks; for intracellular ROS production / oxidative stress in microglia: CellROX. As for the experimental part: as §1, with “Mice” for “Specific pathogen-free (SPF) and germ-free (GF) housed C57BL/6 mice were analyzed at 6-10 weeks of age (young-adult) and 96-104 weeks of age (aged). Mice”, “For the treatment, young-adult mice (8 weeks old) were injected intraperitoneally or by oral gavage with CML (0.735 mg kg^−1; Iris Biotech), trimethylamine N-oxide (TMAO) (3.95 mg kg^−1; Sigma-Aldrich), sodium acetate (59 mg kg^−1; Sigma-Aldrich) and sodium propionate (4.61 mg kg^−1; Sigma-Aldrich) daily for 14 days.” left out
Mice were lethally anesthetized with ketamine (100 mg kg^−1 body weight) and xylazine (10 mg kg^−1 body weight) followed by perfusion with 1×PBS through the left heart chamber. For histology, brains were kept overnight in 4% paraformaldehyde (PFA). For flow cytometry and magnetic-activated cell sorting (MACS) beads cell sorting, brains were dissected, homogenized and filtered through a […] mesh. […] Myelin was removed from the top layer and the cell pellet was washed once with 1×PBS followed by antibody staining.
Brain specimens from the cortex were first fixed overnight in 3% glutaraldehyde at 4° C., washed with Sorensen buffer, and then transferred to 1% osmium tetroxide for 2 hours at room temperature. Next, samples were dehydrated by a graded series of ethanol (30-100%) followed by 100% propylene oxide, resin/propylene oxide (1:2 (v/v)) and resin/propylene oxide (2:1 (v/v)). Samples were embedded in resin via polymerization for 24 hours at 75° C. Then, 700-nm semithin sections were cut and stained with 2% toluidine blue to define the region of interest for further preparation of 70 nm ultrathin sections using an ultramicrotome (Leica Reichert Ultracut S) after contrasting the sections with uranyl acetate and lead citrate (Leica Reichert Ultrastainer). To assess the mitochondrial phenotype in microglia, images were acquired with a ×7,900 or ×46,000 magnification using a CM100 electron microscope (Philips).
Cell sorting for RT-qPCR and RNA sequencing (RNA-seq) was performed on a MoFlo Astrios (Beckman Coulter; FIG. 7a). Before surface staining, dead cells were excluded by using the Fixable Viability Dye eFluor 780 (1:1,000 dilution; Thermo Fisher Scientific) followed by incubation with Fc receptor blocking antibody CD16/CD32 (1:200 dilution, clone 2.4G2; BD Bioscience). […] To assess microglial cellular reactive oxidative species (ROS), the CellROX DeepRed Reagent ([…]; Thermo Fisher Scientific) was used. To assess mitochondrial activity, Tetramethylrhodamine, Methyl Ester, Perchlorate (50 nM; Thermo Fisher Scientific) and MitoTracker Green FM (20 nM; Thermo Fisher Scientific) were used.

Regarding `OC[C@H]1O[C@@H](O[C@@H]2[C@@H](CO)OC(O)(CO)[C@H]2O)[C@H](O)[C@@H](O)[C@H]1O` (mixture of isomers) [lactulose], the “normal value of excretion in urine (percentage of ingested amount)” value in data set [1] is on record as “about 0.35%”.
Turning to `O=c1oc2c(O)c(O)cc3c(=O)oc4c(O)c(O)cc1c4c23` [EA, ellagic acid], in the data set on gut barrier / microglia, the “ATP levels in microglia” value was “increased ATP levels”, the “cellular ROS in microglia (CellROX)” value is given as “significant reduction”, the “CML accumulation in the brain (LC-MS)” value is “reduced” and the “gut permeability (FITC-dextran 4 kDa translocation to the circulation)” value is listed as “no direct effect”.
Consider `C[N+](C)(C)[O-]` [TMAO, trimethylamine N-oxide], for which, in the data set on microglia, the “metabolic function (metabolic/mitochondrial activity) of microglia” value is reported as “no effect” and the “intracellular ROS production / oxidative stress in microglia” value was “no effect”.
In the case of `OC[C@@H](O)[C@@H](O)[C@H](O)[C@H](O)CO` [mannitol], in data set [1], the “normal value of excretion in urine (percentage of ingested amount)” value is roughly 12.3%.
As to `CC(=O)[O-].[Na+]` [sodium acetate], in the data set with microglia, the “metabolic function (metabolic/mitochondrial activity) of microglia” value is “no effect” and the “intracellular ROS production / oxidative stress in microglia” value was “no effect”.
As to `CCC(=O)[O-].[Na+]` [sodium propionate], in the data set on microglia, the “metabolic function (metabolic/mitochondrial activity) of microglia” value was “no effect” and the “intracellular ROS production / oxidative stress in microglia” value is given as “no effect”.

B1: IAP: intestinal alkaline phosphatase, an endogenous enhancer of the gut barrier function (exemplary CAS No. 9001-78-9 (calf)) (protein, UniProt P19111 20-506, looked up)
Intestinal-type alkaline …: LVPVEEEDPAFWNRQAAQALDVAKKLQPIQTAAKNVILFLGDGMGVPTVTATRILKGQMNGKLGPETPLAMDQFPYVALSKTYNVDRQVPDSAGTATAYLCGVKGNYRTIGVSAAARYNQCKTTRGNEVTSVMNRAKKAGKSVGVVTTTRVQHASPAGAYAHTVNRNWYSDADLPADAQMNGCQDIAAQLVNNMDIDVILGGGRKYMFPVGTPDPEYPDDASVNGVRKRKQNLVQAWQAKHQGAQYVWNRTALLQAADDSSVTHLMGLFEPADMKYNVQQDHTKDPTLQEMTEVALRVVSRNPRGFYLFVEGGRIDHGHHDDKAYMALTEAGMFDNAIAKANELTSELDTLILVTADHSHVFSFGGYTLRGTSIFGLAPSKALDSKSYTSILYGNGPGYALGGGSRPDVNDSTSEDPSYQQQAAVPQASETHGGEDVAVFARGPQAHLVHGVEEETFVAHIMAFAGCVEPYTDCNLPAPTTATSIPD
Consider B1, for which, in the data set on gut barrier / microglia, the “ATP levels in microglia” value is reported as “increased ATP levels”, the “cellular ROS in microglia (CellROX)” value is recorded as “significant reduction”, the “CML accumulation in the brain (LC-MS)” value is “reduced” and the “gut permeability (FITC-dextran 4 kDa translocation to the circulation)” value is recorded as “lower gut leakiness”.
